Consider 26 compounds from ChEMBL document CHEMBL1149526, “Synthesis and SAR of selective benzothiophene, benzofuran, and indole-based peroxisome proliferator-activated receptor delta agonists” (Bioorg Med Chem Lett, 2007).

By IC50 is commonly meant the concentration at which inhibition is half-maximal. Lower therefore signals inhibition by little substance. One may read the EC50 as the concentration giving half of the maximal effect. Read a low EC50 as an effect from little substance.

Experiment [1] deals with T1, Peroxisome proliferator-activated receptor delta (Homo sapiens, UniProt Q03181).
T1 sequence (Q03181 whole entry): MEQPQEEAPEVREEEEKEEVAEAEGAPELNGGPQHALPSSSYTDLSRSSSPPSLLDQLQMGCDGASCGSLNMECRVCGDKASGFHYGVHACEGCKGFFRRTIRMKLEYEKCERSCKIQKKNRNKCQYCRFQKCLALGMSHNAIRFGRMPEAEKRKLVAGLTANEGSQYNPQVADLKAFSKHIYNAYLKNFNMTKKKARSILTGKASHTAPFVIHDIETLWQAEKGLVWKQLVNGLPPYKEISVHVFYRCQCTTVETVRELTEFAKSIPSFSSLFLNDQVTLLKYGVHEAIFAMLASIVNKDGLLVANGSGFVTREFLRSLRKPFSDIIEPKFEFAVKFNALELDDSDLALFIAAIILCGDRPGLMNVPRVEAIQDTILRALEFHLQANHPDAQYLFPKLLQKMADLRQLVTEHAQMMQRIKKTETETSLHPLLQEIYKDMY

The target in experiment [2] is T2, Peroxisome proliferator-activated receptor alpha (Homo sapiens, UniProt Q07869).
T2 sequence (Q07869 whole entry): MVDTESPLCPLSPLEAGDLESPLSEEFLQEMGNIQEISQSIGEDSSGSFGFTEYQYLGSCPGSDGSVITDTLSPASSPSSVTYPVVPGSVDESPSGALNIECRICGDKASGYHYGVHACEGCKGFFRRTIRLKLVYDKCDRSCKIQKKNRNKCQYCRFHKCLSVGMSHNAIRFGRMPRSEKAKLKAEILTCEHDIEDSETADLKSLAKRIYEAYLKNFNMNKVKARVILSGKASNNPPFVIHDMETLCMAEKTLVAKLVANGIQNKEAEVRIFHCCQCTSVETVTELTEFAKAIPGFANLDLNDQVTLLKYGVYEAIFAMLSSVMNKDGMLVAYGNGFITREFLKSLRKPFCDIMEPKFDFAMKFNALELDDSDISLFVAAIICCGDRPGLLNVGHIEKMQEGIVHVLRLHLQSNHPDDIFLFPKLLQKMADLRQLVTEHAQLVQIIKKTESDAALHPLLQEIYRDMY

In experiment [3] the target is T1, Peroxisome proliferator-activated receptor delta. Type of experiment: functional, cell-based, HepG2.

As for `O=C(O)Cn1ccc2cc(OCc3ccccc3COc3ccc(C(F)(F)F)cc3)ccc21`, the IC50 is 734 nM in experiment [1] and greater than 10000 nM in experiment [2]. This compound also had an EC50 in experiment [3] of 3080 nM.

On to `O=C(O)Cn1ccc2cc(OCc3cccc(COc4ccc(C(F)(F)F)cc4)c3)ccc21`, for which the IC50 in experiment [1] came out at 13 nM; in experiment [2], 179 nM. In experiment [3], the response was half-maximal at 254 nM (EC50).

In the case of `Cc1nc(C(F)(F)F)sc1CSc1ccc2c(ccn2CC(=O)O)c1`, the half-maximal inhibitory concentration (IC50) came out at 2.8 nM in experiment [1] and 172 nM in experiment [2]. Besides, in experiment [3], the midpoint of the response, the EC50, lay at 4 nM.

With `Cc1nc(-c2ccc(C(F)(F)F)cc2)sc1COc1ccc2c(CC(=O)O)csc2c1`, in experiment [2], half-maximal inhibition (IC50) was put at 482 nM.

In the case of `O=C(O)Cc1csc2cc(OCc3cc(-c4ccc(Cl)cc4)on3)ccc12`, the IC50 in experiment [1] is 7.7 nM; in experiment [2] it was 3820 nM. The compound also yielded an EC50 in experiment [3] of 226 nM.

As to `O=C(O)Cc1coc2cc(OCc3cc(-c4ccc(C(F)(F)F)cc4)on3)ccc12`, the figures for the IC50 in experiment [1] and in experiment [2] were 25 nM and 1420 nM, respectively. Further, the response in experiment [3] was half-maximal at 1610 nM (EC50).

As for `Cc1nc(-c2ccc(C(F)(F)F)cc2)sc1COc1cc(Cl)c2c(CC(=O)O)csc2c1`, the half-inhibitory concentration (IC50) in experiment [1] amounted to 58 nM; in experiment [2] it was 1040 nM. This compound also came in with an EC50 in experiment [3] of 227 nM.

Turning to `Cc1cc2c(CC(=O)O)csc2cc1OCc1cc(-c2ccc(Cl)cc2)on1`, the IC50 was determined as 37 nM in experiment [1] and 5810 nM in experiment [2]. Besides, the EC50 in experiment [3] was 656 nM.

On to `O=C(O)Cc1csc2cc(OCc3cc(-c4ccc(Cl)cc4)on3)cc(Cl)c12`, for which the IC50 was found to be 375 nM in experiment [1] and 3840 nM in experiment [2]. Besides, the response in experiment [3] was half-maximal at 6360 nM (EC50).

In the case of `Cc1cc(OCc2cc(-c3ccc(C(F)(F)F)cc3)on2)cc2scc(CC(=O)O)c12`, the IC50 in experiment [1] turned out to be 37 nM; in experiment [2], 1470 nM. The EC50 in experiment [3] is 561 nM.

Take `O=C(O)Cc1csc2cc(OCc3ccccc3COc3ccc(C(F)(F)F)cc3)ccc12`: the IC50 stood at 244 nM in experiment [1] and 7860 nM in experiment [2]. Moreover, the response in experiment [3] was half-maximal at 2230 nM (EC50).

Compound `Cc1cc2c(CC(=O)O)csc2cc1OCc1ccccc1COc1ccc(C(F)(F)F)cc1` came in with an IC50 in experiment [2] of 4680 nM.

`O=C(O)Cc1csc2cc(OCc3cccc(COc4ccc(C(F)(F)F)cc4)c3)ccc12`: the IC50 in experiment [2] is 963 nM.

For the compound `O=C(O)Cc1csc2cc(OCc3ccc(COc4ccc(C(F)(F)F)cc4)cc3)ccc12`, the IC50 in experiment [2] worked out at 229 nM.

The compound `O=C(O)Cc1coc2cc(OCc3cccc(COc4ccc(C(F)(F)F)cc4)c3)ccc12` had an IC50 in experiment [2] of 2500 nM.

`O=C(O)Cc1coc2cc(OCc3ccc(COc4ccc(C(F)(F)F)cc4)cc3)ccc12`: the IC50 came to 81 nM in experiment [1] and 2380 nM in experiment [2]. The same compound returned an EC50 in experiment [3] of 3440 nM.

For the compound `Cc1nc(C(F)(F)F)sc1COc1ccc2c(ccn2CC(=O)O)c1`, the IC50 was found to be 6.8 nM in experiment [1] and 550 nM in experiment [2]. For the same compound, a half-maximal effect in experiment [3] (EC50) was put at 223 nM.

As to `Cc1nc(-c2ccc(C(F)(F)F)cc2)sc1COc1ccc2c(CC(=O)O)coc2c1`, the figures for the IC50 in experiment [1] and in experiment [2] were 14 nM and 679 nM, respectively. In experiment [3], this compound yielded an EC50 of 243 nM.

For `O=C(O)Cc1coc2cc(OCc3cc(-c4ccc(Cl)cc4)on3)ccc12`, the IC50 in experiment [1] worked out at 81 nM; in experiment [2], 2380 nM. The compound further yielded an EC50 in experiment [3] of 323 nM.

Turning to `Cc1cc2c(CC(=O)O)csc2cc1OCc1sc(-c2ccc(C(F)(F)F)cc2)nc1C`, the half-inhibitory concentration (IC50) in experiment [1] amounted to 237 nM; in experiment [2], 683 nM.

Regarding `Cc1cc(OCc2cc(-c3ccc(Cl)cc3)on2)cc2scc(CC(=O)O)c12`, the IC50 in experiment [1] worked out at 23 nM; in experiment [2] it was 311 nM. For the same compound, a half-maximal response in experiment [3] (EC50) required 638 nM.

Turning to `O=C(O)Cc1csc2cc(OCc3cc(-c4ccc(C(F)(F)F)cc4)on3)ccc12`, the IC50 in experiment [1] was 11 nM; in experiment [2] it was 261 nM. In experiment [3], this compound registered an EC50 of 305 nM.

On to `O=C(O)Cn1ccc2cc(OCc3ccc(Oc4ccc(C(F)(F)F)cc4)cc3)ccc21`, for which the IC50 in experiment [1] was 91 nM; in experiment [2] it was 562 nM. Besides, the EC50 in experiment [3] was determined as 2810 nM.

With `O=C(O)Cc1csc2cc(OCc3cc(-c4ccc(C(F)(F)F)cc4)on3)cc(Cl)c12`, the values for the IC50 in experiment [1] and in experiment [2] were 97 nM and 1350 nM, respectively. In experiment [3], the EC50 was determined as 2360 nM.

For the compound `O=C(O)Cc1coc2cc(OCc3ccccc3COc3ccc(C(F)(F)F)cc3)ccc12`, the IC50 was 662 nM in experiment [1] and greater than 10000 nM in experiment [2]. In experiment [3], this compound came in with an EC50 of 3120 nM.

On to `O=C(O)Cn1ccc2cc(OCc3cc(-c4ccc(C(F)(F)F)cc4)on3)ccc21`, for which the IC50 in experiment [1] came out at 31 nM; in experiment [2], 835 nM. This compound also came in with an EC50 in experiment [3] of 1390 nM.
